In PubChem BioAssay (NCI) one finds TGI and GI50 data, which are given here for 12 compounds.

Structures are written as SMILES. Values joined by “and” are separate entries in the source; they are usually repeats but may differ in a detail not shown here. Equal entries are not always repeated.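 All cell lines were grown in 96-well plates and treated with compound for 48 hours. GI50: concentration for 50% inhibition of growth. TGI denotes the concentration required for complete inhibition of growth.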

Holding throughout (experiment): DTP human tumour cell line panel, 48 h
Assay [1] has as its system COLO 205 colon.
The subject of assay [2] is HL-60(TB) leukemia.
The subject of assay [3] is OVCAR-3 ovarian.
In assay [4] the test system is OVCAR-8 ovarian.
Assay [5] relates to SK-MEL-28 melanoma.
The subject of assay [6] is SNB-75 CNS.
Assay [7] concerns SW-620 colon.
For assay [8], the system named is BT-549 breast.
For assay [9], the system named is NCI-H522 lung.
In assay [10] the test system is NCI/ADR-RES ovarian.

For orientation: TGI means the concentration at which net growth stops. Higher therefore signals less potent growth arrest. Take `N#CC(/C(=N/NC(=O)C(=O)NN)C(=O)Nc1nc([N+](=O)[O-])cs1)c1ccc(Cl)cc1` (stereo unspecified): the TGI in [1], in assay [2], in [3], in [4], in assay [5] and in assay [6] was greater than 100 µM in each case. Also, the concentration for total growth inhibition (TGI) in assay [7] was greater than 100 µM.
Take `COc1ccc2c(c1O)C13CCN(C)C(C2)C1CCC1(C3)OCCO1` (stereo unspecified): the TGI in assay [8], in assay [1], in assay [9], in assay [10], in assay [3] and in assay [4] was greater than 100 µM each time. In addition, the TGI in assay [5], in assay [6] and in [7] was greater than 100 µM throughout.
A word on the GI50: it is the concentration at which growth is held to half of that of the control. For `S=C(N/N=C(/c1ccccc1)c1ccccn1)N1CCCCC1`, the total growth inhibition concentration (TGI) in [8] is 2.53 µM; in assay [9] it was 3.13 µM and 1.71 µM; in assay [10], 1.87 µM and 0.986 µM; in assay [3] it was 1.88 µM and 1.39 µM; in [4], 1.96 µM and 1.69 µM; in assay [5] it was 2.55 µM and 2.82 µM. Further, the TGI in assay [6] is 2.92 µM; in assay [7], 1.23 µM and 2.96 µM. Further, the 50% growth inhibitory concentration (GI50) is less than 0.001 µM in [1]; 0.422 µM in assay [9]; less than 0.001 µM in [10]; less than 0.001 µM in [3]; less than 0.001 µM in [4]; 1.08 µM in assay [5]. Besides, the GI50 in assay [7] was less than 0.001 µM.
As for `CC(=O)Oc1cc(C)c2c(c1OC(C)=O)CC1(O2)[C@@H](C)CCC2[C@@]3(C)CC[C@H](OC(C)=O)C(C)(C)C3CC[C@]21C` (stereo partly specified), the TGI in [1] turned out to be 3.15 µM; in assay [3], 8.41 µM; in [4], 13.7 µM; in assay [5], 15.9 µM; in assay [6], 14.9 µM; in [7], 12.3 µM.
As to `CC(=O)CCc1ccc(OC2OC(COC(=O)c3cc(O)c(O)c(O)c3)C(O)C(O)C2OC(=O)/C=C/c2ccccc2)cc1` (stereo unspecified), the GI50 in assay [8] was 35.6 µM; in [1] it was 28.1 µM; in [9], 18.1 µM; in assay [10] it was greater than 100 µM; in assay [3] it was 23.8 µM; in assay [4], 21.2 µM. Besides, the GI50 in assay [5] was 19.4 µM; in assay [7] it was 35.1 µM. The TGI in assay [8] was 64.6 µM; in assay [1], 89.4 µM; in assay [9], 48 µM; in [10], greater than 100 µM; in assay [3], 72.4 µM; in [4], 55 µM. Moreover, the total growth inhibition concentration (TGI) in assay [5] is 39.9 µM; in [7] it was 97.5 µM.
With `COc1ccc(-n2cc(-c3cc(OC)c(OC)c(OC)c3)nc2SCc2ccccc2)cc1`, the GI50 was 49.5 µM in [1]; 10 µM in [2]; 31.5 µM in assay [9]; 26.8 µM in [10]; 47.4 µM in assay [3]; 76.6 µM in assay [5]. Further, the GI50 in assay [6] is 7.04 µM; in assay [7] it was greater than 100 µM. Also, the TGI in assay [1], in [2], in assay [9], in assay [10], in assay [3] and in [5] was greater than 100 µM each time. The TGI was 66.8 µM in [6] and greater than 100 µM in assay [7].
As for `COC(c1cccc(C(O)(C(F)(F)F)C(F)(F)F)c1)(C(F)(F)F)C(F)(F)F`, the TGI in [1] turned out to be 33.5 µM; in assay [9] it was 26.5 µM; in assay [3], 38 µM; in assay [4], 45.4 µM; in assay [6] it was 32.1 µM; in assay [7] it was 32.9 µM.
As for `Nc1nc(N)c(Cn2ccnc2)c(=O)[nH]1`, the TGI in assay [8], in assay [1], in [9], in assay [10], in assay [3] and in assay [4] was greater than 100 µM in each case. This compound came in with a total growth inhibition concentration (TGI) in assay [6] greater than 100 µM.
Turning to `CSc1cccc(-n2c3nc(=O)n(C)c(=O)c-3nc3ccccc32)c1`, the concentration for total growth inhibition (TGI) in assay [1] amounted to 11 µM; in assay [2], 16.7 µM; in assay [9] it was 28.3 µM; in [3] it was 6.17 µM; in assay [4], 57.6 µM; in assay [5], 37.3 µM. In addition, the total growth inhibition concentration (TGI) in assay [6] is 28.6 µM; in assay [7], 22 µM.
For the compound `CC(=O)O[C@@]12CO[C@@H]1C[C@H](O)[C@@]1(C)C(=O)[C@H](O)C3=C(C)[C@@H](OC(=O)[C@H](O)[C@@H](NC(=O)OC(C)(C)C)c4ccccc4)C[C@@](O)([C@@H](OC(=O)c4ccccc4)[C@H]21)C3(C)C`, the concentration for 50% growth inhibition (GI50) is 0.0023 µM and 0.000963 µM in [1]; 0.00316 µM and 0.00342 µM in [2]; 0.00086 µM in assay [9]; 0.68 µM in assay [10]; 0.0296 µM and 0.00642 µM in assay [3]; 0.0139 µM and 0.0138 µM in assay [4]. Moreover, the GI50 was 0.0327 µM and 0.0359 µM in assay [5]; 0.0187 µM and 0.0127 µM in assay [6]; 0.00764 µM and 0.00646 µM in assay [7]. The TGI is 0.059 µM and 0.00717 µM in [1]; 9.76 µM in assay [10]; 0.0244 µM in [3]; greater than 79.3 µM in [4]; 36.5 µM in assay [5]; 0.0637 µM in assay [6]. This compound gave a TGI in [7] greater than 68.4 µM.
As for `CCCCCCCC(=O)NCC(O)CNC(=O)CCCCCCC`, the TGI in assay [1], in assay [2], in [9], in assay [3], in assay [4] and in assay [6] was greater than 100 µM in each case. In addition, in assay [7], the total growth inhibition concentration (TGI) is greater than 100 µM.
`CC(C)(O)C#Cc1ccc(/C=C/C(=O)c2ccccc2)s1`: the GI50 in assay [8] is 16.2 µM; in assay [1], 16.9 µM; in [9], 16 µM; in assay [10] it was 18.3 µM; in [3] it was 17 µM; in assay [4], 15.9 µM. The GI50 in [5] was 16 µM; in assay [6], 13.7 µM; in assay [7] it was 19.5 µM. Moreover, the TGI in [8] turned out to be 30.8 µM; in assay [1], 32.7 µM; in [9], 32.7 µM; in assay [10], 39 µM; in assay [3], 31.5 µM; in assay [4], 29.9 µM. In addition, the figures for the TGI in assay [5], in assay [6] and in [7] were 30.2 µM, 27 µM and 40.9 µM, respectively.
